Results as given in US20210188856A1, “CRYSTAL FORM OF HYDROCHLORIDE OF PYRAZOLOHETEROARYL DERIVATIVE AND PREPARATION METHOD” (JIANGSU HENGRUI MEDICINE CO., LTD., priority 2018, published 2021).
Entries after “also recorded” stand apart in the source; their conditions may differ. Read-outs that look alike come from different tables or passages of the source.

Assays:
Type in all cases: physicochemical
[1] = Solubility in PBS 7.4 and FaSSIF solutions; details: thermodynamic from solid
Description: The amorphous samples of the compound represented by formula (I) and the crystal form I samples of the dihydrochloride salt of the compound represented by formula (I) obtained in the present disclosure were further evaluated for solubility in PBS 7.4 and FaSSIF solutions.

Log D = experiment: Log D
[2] = Hygroscopicity by dynamic vapor sorption (DVS); details: 25° C.
Description: DVS is dynamic vapor sorption: Surface Measurement Systems advantage 2 is used, the humidity starts from 50%, the humidity range is 0%-95%, and the step size is 10%. The judgment standard is that the mass change is less than 0.01% within 10000 min, and two cycles are performed. Surface Measurement Systems advantage 2 was used, the experiment was carried out at 25° C. with humidity starting from 50%, the humidity range observed was 0%-95%, the step size was 10%, and the judgment standard was that the mass change was less than 0.01% within 10000 min, and two cycles were performed.

[3] = Influencing factors stability (heating, light illumination, high humidity; spread and uncovered, 20 days)
Description: Example 6: the crystal form I of the dihydrochloride salt of the compound represented by formula (I) (example 1) was spread and uncovered, and the steadily of the sample was evaluated under heating (40° C., 60° C.), light illumination (4500 Lux), and high humidity (RH 75%, RH 90%) with a period of 20 days.
(§1) Example 10: the crystal form A (example 7) of the monohydrochloride salt of the compound of formula (I) was spread and uncovered, and the stability of the sample was evaluated under heating (40° C., 60° C.), light illumination (4500 Lux), high humidity (RH 75%, RH 90%) conditions with a period of 20 days.
as §1, with “Example 11:” for “Example 10:”, “form B” for “form A (example 7)”, “compound represented by” for “compound of”, “(I) (example 8)” for “(I)”
as §1, with “Example 12:” for “Example 10:”, “form C” for “form A (example 7)”, “compound represented by” for “compound of”, “(I) (example 9)” for “(I)”

[4] = Long-term stability, 25° C., 60% RH, 9 months; details: for Purity % 3 months / Purity % 9 months / Purity Initial: 60% RH
Description: Example 13: Three batches of the crystal form I of the dihydrochloride salt of the compound of formula (I) were subjected to a long-term stability investigation of 9 months under the conditions of 25° C±2° C., 60%RH±5%RH.

[5] = XRPD of sample taken out during DSC temperature rise
Description: According to X-ray powder diffraction detection, the crystal form is crystal form I, and the XRPD pattern thereof is shown in FIG. 1.

[6] = light illumination (4500 Lux), 4 days
[7] = light illumination (4500 Lux), 10 days
[8] = light illumination (4500 Lux), 20 days

Which solubility ([1]; FaSSIF solution, fassif, read-out: FasSIF Solubility) does the source give for `CCCCOc1nc(N)c2cnn(Cc3ccc(CN4CCCC4)cc3)c2n1.Cl.Cl` [crystal form I, 6-butoxy-1-(4-(pyrrolidin-1-ylmethyl)benzyl)-1H-pyrazolo[3,4-d]pyrimidin-4-amine dihydrochloride] here?
The solubility was 1250 µg/mL.

And the solubility ([1]; PBS 7.4, pH 7.4, aqueous buffer, read-out: PBS 7.4 Solubility)?
Its solubility is 50 µg/mL.

What about the logD (Log D) of the same molecule?
Its logD is 1.17.

And the “DVS weight change 0.0% RH-95.0% RH” value ([2]; 0.0% RH-95.0% RH)?
The value was 9.19%.

What about the “DVS weight change 10%RH-90.0%RH” value ([2]; 10%RH-90.0%RH) of the same molecule?
The value was 6.628%.

What about the “Crystal form before and after DVS (XRPD)” value ([2]; DVS two cycles, dihydrochloride) of the same molecule?
Its value is “did not change; also recorded: has not changed; also recorded: unchanged”.

What about the “hygroscopicity (in words)” value ([2]; DVS, dihydrochloride) of the same molecule?
The value was “slightly hygroscopic; also recorded: (with hygroscopicity)”.

And the Maximum single impurity ([3]; 0 day)?
The Maximum single impurity was 0.11%.

And the Purity ([3]; 0 day)?
Its Purity is 99.47%.

And the Total impurities ([3]; 0 day)?
Its Total impurities is 0.53%.

What about the Maximum single impurity ([3]; 40° C., 4 days) of the same molecule?
Its Maximum single impurity is 0.11%.

And the Purity ([3]; 40° C., 4 days)?
The Purity was 99.49%.

And the Total impurities ([3]; 40° C., 4 days)?
Its Total impurities is 0.51%.

And the Maximum single impurity ([3]; 40° C., 10 days)?
Its Maximum single impurity is 0.12%.

What about the Purity ([3]; 40° C., 10 days) of the same molecule?
The Purity was 99.52%.

What about the Total impurities ([3]; 40° C., 10 days) of the same molecule?
Its Total impurities is 0.48%.

What about the Maximum single impurity ([3]; 40° C., 20 days) of the same molecule?
The Maximum single impurity was 0.12%.

What about the Purity ([3]; 40° C., 20 days) of the same molecule?
The Purity was 99.46%.

What about the Total impurities ([3]; 40° C., 20 days) of the same molecule?
The Total impurities was 0.54%.

And the Maximum single impurity ([3]; 60° C., 4 days)?
The Maximum single impurity was 0.15%.

And the Purity ([3]; 60° C., 4 days)?
Its Purity is 99.44%.

What about the Total impurities ([3]; 60° C., 4 days) of the same molecule?
Its Total impurities is 0.56%.

And the Maximum single impurity ([3]; 60° C., 10 days)?
The Maximum single impurity was 0.11%.

What about the Purity ([3]; 60° C., 10 days) of the same molecule?
The Purity was 99.53%.

What about the Total impurities ([3]; 60° C., 10 days) of the same molecule?
The Total impurities was 0.47%.

And the Maximum single impurity ([3]; 60° C., 20 days)?
Its Maximum single impurity is 0.11%.

What about the Purity ([3]; 60° C., 20 days) of the same molecule?
Its Purity is 99.42%.

And the Total impurities ([3]; 60° C., 20 days)?
The Total impurities was 0.58%.

And the Maximum single impurity ([3]; 75% RH, 4 days)?
Its Maximum single impurity is 0.15%.

And the Purity ([3]; 75% RH, 4 days)?
Its Purity is 99.38%.

What about the Total impurities ([3]; 75% RH, 4 days) of the same molecule?
Its Total impurities is 0.62%.

What about the Maximum single impurity ([3]; 75% RH, 10 days) of the same molecule?
The Maximum single impurity was 0.12%.

What about the Purity ([3]; 75% RH, 10 days) of the same molecule?
Its Purity is 99.53%.

And the Total impurities ([3]; 75% RH, 10 days)?
Its Total impurities is 0.47%.

And the Maximum single impurity ([3]; 75% RH, 20 days)?
Its Maximum single impurity is 0.11%.

What about the Purity ([3]; 75% RH, 20 days) of the same molecule?
Its Purity is 99.47%.

What about the Total impurities ([3]; 75% RH, 20 days) of the same molecule?
Its Total impurities is 0.53%.

What about the Maximum single impurity ([3]; 90% RH, 4 days) of the same molecule?
Its Maximum single impurity is 0.11%.

What about the Purity ([3]; 90% RH, 4 days) of the same molecule?
Its Purity is 99.46%.

And the Total impurities ([3]; 90% RH, 4 days)?
The Total impurities was 0.54%.

What about the Maximum single impurity ([3]; 90% RH, 10 days) of the same molecule?
The Maximum single impurity was 0.12%.

And the Purity ([3]; 90% RH, 10 days)?
The Purity was 99.54%.

And the Total impurities ([3]; 90% RH, 10 days)?
Its Total impurities is 0.46%.

What about the Maximum single impurity ([3]; 90% RH, 20 days) of the same molecule?
Its Maximum single impurity is 0.11%.

And the Purity ([3]; 90% RH, 20 days)?
Its Purity is 99.52%.

What about the Total impurities ([3]; 90% RH, 20 days) of the same molecule?
Its Total impurities is 0.48%.

And the Maximum single impurity [3, 6]?
The Maximum single impurity was 0.14%.

And the Purity [3, 6]?
Its Purity is 99.45%.

What about the Total impurities [3, 6] of the same molecule?
Its Total impurities is 0.55%.

And the Maximum single impurity [3, 7]?
Its Maximum single impurity is 0.11%.

What about the Purity [3, 7] of the same molecule?
The Purity was 99.54%.

And the Total impurities [3, 7]?
Its Total impurities is 0.46%.

What about the Maximum single impurity [3, 8] of the same molecule?
The Maximum single impurity was 0.12%.

And the Purity [3, 8]?
The Purity was 99.41%.

What about the Total impurities [3, 8] of the same molecule?
Its Total impurities is 0.59%.

And the “stability under the influencing factor conditions (in words)” value ([3]; light illumination, 40° C., 60° C., 75% RH, 90% RH, 20 days)?
Its value is “good”.

What about the “physical and chemical stability, long-term (in words)” value ([4]; 25° C., 60% RH for 9 months) of the same molecule?
The value was “good”.

What about the “Purity % 3 months” value ([4]; Batch 1, 25° C., 3 months) of the same molecule?
The value was 99.52%.

What about the “Purity % 3 months” value ([4]; Batch 1, 25° C., 3 months as printed, column between 3 and 9 months) of the same molecule?
Its value is 99.57%.

What about the “Purity % 9 months” value ([4]; Batch 1, 25° C.) of the same molecule?
Its value is 99.50%.

And the “Purity Initial” value ([4]; Batch 1, 25° C.)?
Its value is 99.57%.

And the “Purity % 3 months” value ([4]; Batch 2, 25° C., 3 months)?
Its value is 99.50%.

And the “Purity % 3 months” value ([4]; Batch 2, 25° C., 3 months as printed, column between 3 and 9 months)?
Its value is 99.48%.

What about the “Purity % 9 months” value ([4]; Batch 2, 25° C.) of the same molecule?
Its value is 99.48%.

And the “Purity Initial” value ([4]; Batch 2, 25° C.)?
The value was 99.53%.

And the “Purity % 3 months” value ([4]; Batch 3, 25° C., 3 months)?
Its value is 99.38%.

What about the “Purity % 3 months” value ([4]; Batch 3, 25° C., 3 months as printed, column between 3 and 9 months) of the same molecule?
The value was 99.33%.

What about the “Purity % 9 months” value ([4]; Batch 3, 25° C.) of the same molecule?
The value was 99.40%.

What about the “Purity Initial” value ([4]; Batch 3, 25° C.) of the same molecule?
The value was 99.44%.

And the “crystal form before and after temperature rise (XRPD)” value ([5]; raised to 150° C.)?
The value was “did not change”.

And the “crystal form before and after temperature rise (XRPD)” value ([5]; raised to 175° C.)?
Its value is “did not change”.
